The source of these data is patent publication US7192746B2, “α-Isomaltosyltransferase, process for producing the same and use thereof” (Kabushiki Kaisha Hayashibara Seibutsu Kagaku Kenkyujo, priority 2000, dated 2007).

Common to all, as to test: Specificity to transferring acceptor
Common to all, as to format: biochemical
Common to all, as to parameters: key: −: no saccharide transferred product was formed; ±: a saccharide-transferred product formed in an amount of less than one percent to the total sugars; +: a saccharide-transferred product was formed in an amount of over one percent but below 10% to the total sugars; ++: a saccharide-transferred product was formed in an amount of over 10% to the total sugars

Assay [1] has as its system α-isomaltosyl-transferring enzyme from Bacillus globisporus C11. The conditions noted are these: panose as saccharide donor, 10 units/g substrate, 3.2% (w/v), 30° C., pH 6.0, 24 hours. The method, then: (§1) Saccharides were tested as follows to examine whether they can be used as transferring acceptors for the α-isomaltosyl-transferring enzyme of the present invention. A solution of D-glucose, D-xylose, L-xylose, D-galactose, D-fructose, D-mannose, D-arabinose, D-fucose, L-sorbose, L-rhamnose, methyl-α-glucoside (or methyl-α-glucopyranoside), methyl-β-glucoside (or methyl-β-glucopyranoside), N-acetyl-D-glucosamine, D-ribose, L-ribose, D-psicose, sorbitol, xylitol, mannitol, arabitol, ribitol, erythritol, maltose, maltotriose, maltotetraose, maltopentaose, isomaltose, isomaltotriose, α,α-trehalose, α,β-trehalose, kojibiose, nigerose, cellobiose, gentibiose, isopanose, maltitol, maltotriitol, lactose, sucrose, erlose, isomaltosylglucoside, α-cyclodextrin, β-cyclodextrin, γ-cyclodextrin, or L-ascorbic acid was prepared. To each solution was added panose as a saccharide donor to give an equal concentration, admixed with 10 units/g substrate of a purified specimen of either α-isomaltosyl-transferring enzyme from Bacillus globisporus C9 obtained by the method in Experiment 4, Bacillus globisporus C11 obtained by the method in Experiment 7, Bacillus globisporus N75 obtained by the method in Experiment 11, or Arthrobacter ramosus S1 obtained by the method in Experiment 15, or a partially purified specimen of α-isomaltosyl-transferring enzyme from Arthrobacter globiformis A19 obtained by the method in Experiment 18, followed by adjusting the saccharide concentration to 3.2% (w/v). The mixtures thus obtained were enzymatically reacted at 30° C. and Ph 6.0 for 24 hours. The saccharide composition of the resulting reaction mixtures were analyzed on gas chromatography (abbreviated as “GLC” hereinafter) for monosaccharides and disaccharides as testing saccharides, and on HPLC for tri- or higher-saccharides as testing saccharides to confirm whether these saccharides can be used as transferring acceptors for the above enzymes with an index of the positive or negative formation of a saccharide transferred product. In performing GLC, the following apparatuses and conditions were used: GLC apparatus, “GC-16A” commercialized by Shimadzu Corporation, Tokyo, Japan; column, a stainless-steel column, 3 mm in diameter and 2 m in length, packed with 2% “SILICONE OV-17/[…]”, commercialized by GL Sciences Inc., Tokyo, Japan; carrier gas, nitrogen gas at a flow rate of 40 ml/min under temperature conditions of increasing from 160° C. to 320° C. at an increasing temperature rate of 7.5° C./min; and detection, a hydrogen flame ionization detector. In the case of HPLC analysis, the apparatuses and conditions used were: HPLC apparatus, “CCPD” commercialized by Tosoh Corporation, Tokyo, Japan; column, “ODS-AQ-303” commercialized by YMC Co., Ltd., Tokyo, Japan; eluent, water at a flow rate of 0.5 ml/min; and detection, a differential refractometer.

Assay [2] deals with α-isomaltosyl-transferring enzyme from Bacillus globisporus C9. The conditions noted are these: panose as saccharide donor, 10 units/g substrate, 3.2% (w/v), 30° C., pH 6.0, 24 hours. As to the method:
as §1

For assay [3], the system named is α-isomaltosyl-transferring enzyme from Arthrobacter ramosus S1. The conditions noted are these: panose as saccharide donor, 10 units/g substrate, 3.2% (w/v), 30° C., pH 6.0, 24 hours. The method, then:
as §1

Assay [4] concerns α-isomaltosyl-transferring enzyme from Arthrobacter globiformis A19. The note with it: partially purified enzyme, panose as saccharide donor, 10 units/g substrate, 3.2% (w/v), 30° C., pH 6.0, 24 hours. The method, then: as §1
The subject of assay [5] is α-isomaltosyl-transferring enzyme from Bacillus globisporus N75. The conditions noted are these: panose as saccharide donor, 10 units/g substrate, 3.2% (w/v), 30° C., pH 6.0, 24 hours. The method, then:
as §1

As for `OC[C@@H](O)[C@H](O)[C@@H](O)CO` [Xylitol, xylitol], the “Product of transferring reaction, Enzyme of Strain C11” value (shortened to “Product … of Strain C11”) in assay [1] is on record as “−”. In addition, the “Product of transferring reaction, Enzyme of Strain C9” value (shortened to “Product … of Strain C9”) in assay [2] is listed as “−”. Moreover, the “Product of transferring reaction, Enzyme of Strain S1” value (from here on “Product … of Strain S1”) in assay [3] is recorded as “± (a saccharide-transferred product formed in an amount of less than one percent to the total sugars)”. For the same compound, in assay [4], the “Product of transferring reaction, Enzyme of Stain A19” value (“Product … of Stain A19” for short) is on record as “± (a saccharide-transferred product formed in an amount of less than one percent to the total sugars)”. The “Product of transferring reaction, Enzyme of Strain N75” value (“Product … of Strain N75” for short) in assay [5] is on record as “−”.
For the compound `O=C(CO)[C@@H](O)[C@H](O)[C@H](O)CO` [D-Fructose, D-fructose], the “Product … of Strain C11” value in assay [1] is “−”. For the same compound, the “Product … of Strain C9” value in assay [2] is “−”. Further, in assay [3], the “Product … of Strain S1” value is “+ (a saccharide-transferred product was formed in an amount of over one percent but below 10% to the total sugars)”. In assay [4], the “Product … of Stain A19” value was “± (a saccharide-transferred product formed in an amount of less than one percent to the total sugars)”. In assay [5], the “Product … of Strain N75” value is listed as “−”.
`CC(=O)N[C@H]1C(O)O[C@H](CO)[C@@H](O)[C@@H]1O` (stereo partly drawn) [N-Acetyl-glucosamine, N-acetyl-D-glucosamine]: the “Product … of Strain C11” value in assay [1] is reported as “−”. Also, the “Product … of Strain C9” value in assay [2] is given as “−”. The “Product … of Strain S1” value in assay [3] is “−”. In assay [4], the “Product … of Stain A19” value is reported as “−”. Moreover, in assay [5], the “Product … of Strain N75” value is “−”.
With `O=C[C@H](O)[C@@H](O)[C@H](O)CO` [D-Xylose, D-xylose], in assay [1], the “Product … of Strain C11” value is reported as “++ (a saccharide-transferred product was formed in an amount of over 10% to the total sugars)”. Besides, the “Product … of Strain C9” value in assay [2] was “++ (a saccharide-transferred product was formed in an amount of over 10% to the total sugars)”. The “Product … of Strain S1” value in assay [3] is reported as “++ (a saccharide-transferred product was formed in an amount of over 10% to the total sugars)”. The “Product … of Stain A19” value in assay [4] is “++ (a saccharide-transferred product was formed in an amount of over 10% to the total sugars)”. Also, in assay [5], the “Product … of Strain N75” value is “++ (a saccharide-transferred product was formed in an amount of over 10% to the total sugars)”.
On to `O=C[C@@H](O)[C@@H](O)[C@@H](O)CO` [L-Ribose, L-ribose], for which, in assay [1], the “Product … of Strain C11” value was “−”. Moreover, the “Product … of Strain C9” value in assay [2] was “−”. In addition, the “Product … of Strain S1” value in assay [3] is listed as “++ (a saccharide-transferred product was formed in an amount of over 10% to the total sugars)”. In addition, the “Product … of Stain A19” value in assay [4] is listed as “± (a saccharide-transferred product formed in an amount of less than one percent to the total sugars)”. Also, the “Product … of Strain N75” value in assay [5] is “−”.
Regarding `C[C@H](O)[C@H](O)[C@@H](O)[C@@H](O)C=O` [L-Rhamnose, L-rhamnose], in assay [1], the “Product … of Strain C11” value is on record as “± (a saccharide-transferred product formed in an amount of less than one percent to the total sugars)”. Moreover, the “Product … of Strain C9” value in assay [2] was “± (a saccharide-transferred product formed in an amount of less than one percent to the total sugars)”. Moreover, in assay [3], the “Product … of Strain S1” value is recorded as “+ (a saccharide-transferred product was formed in an amount of over one percent but below 10% to the total sugars)”. Besides, the “Product … of Stain A19” value in assay [4] is “± (a saccharide-transferred product formed in an amount of less than one percent to the total sugars)”. In assay [5], the “Product … of Strain N75” value is “± (a saccharide-transferred product formed in an amount of less than one percent to the total sugars)”.
`OC[C@@H](O)[C@@H](O)[C@H](O)[C@@H](O)CO` [Sorbitol, sorbitol]: the “Product … of Strain C11” value in assay [1] is given as “−”. Moreover, the “Product … of Strain C9” value in assay [2] is reported as “−”. The “Product … of Strain S1” value in assay [3] was “± (a saccharide-transferred product formed in an amount of less than one percent to the total sugars)”. Besides, in assay [4], the “Product … of Stain A19” value is “± (a saccharide-transferred product formed in an amount of less than one percent to the total sugars)”. Moreover, the “Product … of Strain N75” value in assay [5] is “−”.
On to `OC[C@H]1O[C@@](CO)(O[C@H]2O[C@H](CO)[C@@H](O[C@H]3O[C@H](CO)[C@@H](O)[C@H](O)[C@H]3O)[C@H](O)[C@H]2O)[C@@H](O)[C@@H]1O` [Erlose, erlose], for which the “Product … of Strain C11” value in assay [1] is listed as “+ (a saccharide-transferred product was formed in an amount of over one percent but below 10% to the total sugars)”. The “Product … of Strain C9” value in assay [2] was “+ (a saccharide-transferred product was formed in an amount of over one percent but below 10% to the total sugars)”. In addition, the “Product … of Strain S1” value in assay [3] was “+ (a saccharide-transferred product was formed in an amount of over one percent but below 10% to the total sugars)”. The “Product … of Stain A19” value in assay [4] is “+ (a saccharide-transferred product was formed in an amount of over one percent but below 10% to the total sugars)”. In addition, the “Product … of Strain N75” value in assay [5] was “+ (a saccharide-transferred product was formed in an amount of over one percent but below 10% to the total sugars)”.
As for `C[C@@H](O)[C@H](O)[C@H](O)[C@@H](O)C=O` [D-Fucose, D-fucose], the “Product … of Strain C11” value in assay [1] was “± (a saccharide-transferred product formed in an amount of less than one percent to the total sugars)”. Moreover, the “Product … of Strain C9” value in assay [2] is given as “± (a saccharide-transferred product formed in an amount of less than one percent to the total sugars)”. Also, the “Product … of Strain S1” value in assay [3] is recorded as “+ (a saccharide-transferred product was formed in an amount of over one percent but below 10% to the total sugars)”. Moreover, in assay [4], the “Product … of Stain A19” value is recorded as “± (a saccharide-transferred product formed in an amount of less than one percent to the total sugars)”. The “Product … of Strain N75” value in assay [5] was “± (a saccharide-transferred product formed in an amount of less than one percent to the total sugars)”.
As for `O=C1O[C@H]([C@@H](O)CO)C(O)=C1O` [L-Ascorbic acid, L-ascorbic acid], the “Product … of Strain C11” value in assay [1] is reported as “++ (a saccharide-transferred product was formed in an amount of over 10% to the total sugars)”. The “Product … of Strain C9” value in assay [2] is listed as “++ (a saccharide-transferred product was formed in an amount of over 10% to the total sugars)”. In addition, in assay [3], the “Product … of Strain S1” value is listed as “++ (a saccharide-transferred product was formed in an amount of over 10% to the total sugars)”. The “Product … of Stain A19” value in assay [4] was “+ (a saccharide-transferred product was formed in an amount of over one percent but below 10% to the total sugars)”. In assay [5], the “Product … of Strain N75” value was “++ (a saccharide-transferred product was formed in an amount of over 10% to the total sugars)”.
